Where two headings read alike, the source gives them in different places.

Assay [1] deals with IL-17A gene expression. The assay can be described thus: Effect on IL-23-induced cytokine expression in mice. Type of assay: in vivo, Balb/c mice. The note with it: Mus musculus, 30 min before and 8 hr after IL-23, versus the negative control group, read-out: Percent inhibition of IL-17A gene expression; for inhibition in vivo at 30 mg/kg: dose 30 mg/kg oral; for inhibition in vivo at 10 mg/kg: dose 10 mg/kg oral. The procedure:
Effect on IL-23-induced Cytokine Expression in Mice
A mouse IL-23 solution (500 ng/10 μL, prepared by Takeda Pharmaceutical Company Limited) or PBS (10 μL, negative control group) was administered intradermally in the ear of Balb/c mice (Charles River Japan, male, 7 weeks old). Twenty-four hr after administration, the ear was resected under isoflurane anesthesia. The test compound was suspended in 0.5% methylcellulose and administered orally 30 min before and 8 hr after IL-23 administration.
RNA extraction from the ear tissue and quantitative PCR were performed as follows. Specifically, ear tissue 5 mm in diameter was punched from an area of the resected ear centering on the IL-23 injection site, and the tissue was immersed in RNAlater (QIAGEN) for at least 18 hr. The RNAlater-treated ear tissue was homogenized in 350 μL of RLT buffer (RNeasy mini kit, QIAGEN) and treated (55° C., 10 min) with Proteinase K (QIAGEN). Total RNA was then extracted according to the RNeasy mini kit protocol. The RNA thus obtained was then reverse transcribed into cDNA using the High-Capacity RNA-to-cDNA kit (Applied Biosystems), and the amount of each cytokine expressions was measured by real-time PCR (Viia7™, Applied Biosystems). The PCR buffer used was TaqMan Fast Advanced Master Mix (Applied Biosystems), and TaqMan Gene Expression Assays (Applied Biosystems) Mm00439618 ml (IL-17A) and 4352341E (β-actin) were used for cytokine gene detection. The IL-17A gene expression level was normalized to the R-actin gene expression level, and the percent inhibition of IL-17A gene expression with the test compound was then calculated.
The results obtained with the above-described method (percent inhibition of IL-17A gene expression with oral administration of the test compound) are shown in Table 5.

Assay [2] concerns the target T1, RORγt (Homo sapiens, UniProt P51449).
T1 sequence (P51449 1-497 isoform P51449-2): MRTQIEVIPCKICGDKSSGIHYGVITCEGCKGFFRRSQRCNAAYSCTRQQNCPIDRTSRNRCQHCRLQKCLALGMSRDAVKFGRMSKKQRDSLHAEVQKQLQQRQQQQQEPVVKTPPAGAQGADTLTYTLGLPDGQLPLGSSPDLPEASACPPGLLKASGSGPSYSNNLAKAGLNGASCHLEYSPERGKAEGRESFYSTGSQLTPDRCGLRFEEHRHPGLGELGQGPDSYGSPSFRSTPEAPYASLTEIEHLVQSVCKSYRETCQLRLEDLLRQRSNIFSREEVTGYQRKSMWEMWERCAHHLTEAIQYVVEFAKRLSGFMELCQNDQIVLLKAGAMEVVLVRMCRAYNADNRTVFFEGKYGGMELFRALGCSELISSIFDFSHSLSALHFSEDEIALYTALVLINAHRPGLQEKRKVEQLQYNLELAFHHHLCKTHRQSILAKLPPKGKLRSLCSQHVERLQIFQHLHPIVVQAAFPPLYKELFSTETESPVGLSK
Kind of assay: RORγt binding test using fluorescent-labeled cholesterol (TR-FRET). The note with it: read-out: Binding inhibitory rate of fluorescent-labeled cholesterol to RORγt at test compound 1 μM (%). In outline: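 After 20 min at room temperature with His-tagged RORγt and BODIPY-cholesterol in pH 7.5 Tris buffer (NaCl, DTT, BSA), compound wells got terbium anti-His antibody for another 20 min. Time-resolved FRET was read with excitation 320 nm, emission 520 nm and a 100 µs delay.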
(Time-resolved FRET reads energy transfer from a long-lived donor to a nearby acceptor.)

Assay [3] addresses T1, RORγt. The assay can be described thus: Cofactor recruitment test (Alpha Screen, biotinylated SRC-1 peptide). Type of assay: biochemical. The note with it: read-out: Signal value inhibitory rate at test compound 1 μM (%). The procedure:
Cofactor Recruitment Test
Cofactor recruitment test was performed by Alpha Screen (Histidine Detection Kit, PerkinElmer) method. First, a test compound was diluted with an assay buffer (50 mM Tris-HCl (pH 7.5), 50 mM KCl, 1 mM DTT, 0.1% BSA) and added to a 384 well plate by 5 μL. […] The mixture was stood in a dark place for 1 hr, and the signal value was measured by Envision (PerkinElmer).

Assay [4] addresses T1, RORγt. The assay can be described thus: RORγt binding test using fluorescent-labeled synthetic ligand (TR-FRET). The note with it: read-out: Binding inhibitory rate of fluorescent-labeled synthetic ligand to RORγt at test compound 1 μM (%). Put shortly:
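His-tagged RORγt (diluted to 240 nM) with compound, then fluorescent synthetic ligand (diluted to 12 μM), 20 min at room temperature, followed by Tb anti-His antibody (diluted to 8 nM), 20 min.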

The target of assay [5] is T1, RORγt. Kind of assay: Jurkat reporter test (human IL-17 ROR response element luciferase, RORγt vector). It counts as cell-based. The settings on record: read-out: Luminescence level inhibitory rate at test compound 3 μM (%). In outline:
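Luminescence (Bright-Glo, 10 min, RT) was measured after overnight compound treatment of electroporated Jurkat cells (1350 V, 10 ms interval, 3 pulses). The reaction medium was RPMI with 10% lipid-reduced FCS, 10 mM HEPES (pH 7.5) and 5 μM lovastatin.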

Assay [6] concerns IL-17 production in human blood. Kind of assay: Effect on IL-17 production in human blood. The note with it: 72 h, 10 μM test compound, IL-23 and Dynabeads stimulation, 3 days, read-out: Percent Inhibition at 10 μM (IL-17 production). Type of assay: cell-based. The procedure: Effect on IL-17 Production in Human Blood
The inhibitory effect of the test compound on IL-17 production in human blood was evaluated as follows. First, 150 μL of peripheral blood collected from healthy individuals using heparinized vacuum blood collection tubes was dispensed into each well of a 96-well plate (Corning), and 45 μL of RPMI 1640 medium (Gibco) containing 10% fetal bovine serum (FBS, Hyclone) and 30 μL of the test compound diluted with the medium was added to each well. The plate was then cultured for 30 min at 37° C. Cells were subsequently stimulated by adding 30 μL of 100 ng/mL human IL-23 (R&D) and 45 μL of Dynabeads Human (Invitrogen) to each well and culturing the plate for 3 days at 37° C. In wells without stimulation, 75 μL of RPMI 1640 medium containing 10% FBS was added instead of the IL-23 and Dynabeads solution. After culturing for 3 days, the culture supernatant was collected, and the amount of IL-17 in the supernatant was measured using an IL-17 ELISA kit (R&D).
The results of the above-described measurements (percent inhibition of IL-17 production with 10 μM of the test compound) are shown in Table 4.

[7] abbreviates: test compound 3 μM, Jurkat cells.

For `COc1ccc2c(c1)CCN(C(=O)CCCC(=O)O)[C@H]2C(=O)Nc1ccc([Si](C)(C)C)c(F)c1` [Example 135, 5-((1R)-1-((3-fluoro-4-(trimethylsilyl)phenyl)carbamoyl)-6-methoxy-3,4-dihydroisoquinolin-2(1H)-yl)-5-oxopentanoic acid], the inhibition in vivo at 30 mg/kg in assay [1] came to 68%. Besides, the inhibition at 1 µM was found to be 102% in assay [2], 97% in assay [3] and 101% in assay [4]. Also, the inhibition at 3 µM in assay [5] (Jurkat) came out at 104%.
For the compound `COc1ccc2c(n1)CCN(C(=O)N1CC(CC(=O)O)C1)[C@H]2C(=O)Nc1cc(F)c([Si](C)(C)C)c(F)c1` [Example 281, (1-(((5R)-5-((3,5-difluoro-4-(trimethylsilyl)phenyl)carbamoyl)-2-methoxy-7,8-dihydro-1,6-naphthyridin-6(5H)-yl)carbonyl)azetidin-3-yl)acetic acid], the inhibition in vivo at 10 mg/kg in assay [1] came to 93%. Further, the inhibition at 1 µM worked out at 89% in assay [3] and 102% in assay [4]. Moreover, the inhibition at 3 µM in assay [5] (Jurkat) was 102%.
Consider `CCOc1ccc2c(c1)CCN(C(=O)CC[C@H](C)C(=O)O)[C@H]2C(=O)Nc1cc(F)c2c(c1)CCC2(C)C` [Example 266, (2S)-5-((1R)-6-ethoxy-1-((7-fluoro-1,1-dimethyl-2,3-dihydro-1H-inden-5-yl)carbamoyl)-3,4-dihydroisoquinolin-2(1H)-yl)-2-methyl-5-oxopentanoic acid], for which the inhibition at 10 µM in assay [6] was determined as 88%.
As for `COc1ccc2c(c1)CCN(C(=O)CCCC(=O)O)[C@H]2C(=O)Nc1cc(F)c([Si](C)(C)C)c(F)c1` [Example 82, 5-((1R)-1-((3,5-difluoro-4-(trimethylsilyl)phenyl)carbamoyl)-6-methoxy-3,4-dihydroisoquinolin-2(1H)-yl)-5-oxopentanoic acid], the inhibition in vivo at 10 mg/kg in assay [1] was 85%. Further, in assay [6], the inhibition at 10 µM turned out to be 75%.
For the compound `COc1ccc2c(n1)CCN(C(=O)CCCC(=O)O)[C@H]2C(=O)Nc1cc(F)c([Si](C)(C)C)c(F)c1` [Example 125, 5-((5R)-5-((3,5-difluoro-4-(trimethylsilyl)phenyl)carbamoyl)-2-methoxy-7,8-dihydro-1,6-naphthyridin-6(5H)-yl)-5-oxopentanoic acid], the inhibition in vivo at 30 mg/kg in assay [1] came out at 89%.
As to `COc1ccc2c(c1)CCN(C(=O)c1cc(O)no1)[C@H]2C(=O)Nc1cc(F)c2c(c1)CCC2(C)C` [Example 68, (1R)-N-(7-fluoro-1,1-dimethyl-2,3-dihydro-1H-inden-5-yl)-2-((3-hydroxy-1,2-oxazol-5-yl)carbonyl)-6-methoxy-1,2,3,4-tetrahydroisoquinoline-1-carboxamide], the inhibition in vivo at 100 mg/kg in assay [1] (dose 100 mg/kg oral) was 90%. Besides, the inhibition at 1 µM was 103% in assay [2], 73% in assay [3] and 101% in assay [4]. Also, the inhibition at 3 µM in assay [5] (setting [7]) was found to be 99%.
As for `COc1ccc2c(n1)CCN(C(=O)N1CC(CC(=O)O)C1)[C@H]2C(=O)Nc1cc(F)c2c(c1)CCC2(C)C` [Example 273, (1-(((5R)-5-((7-fluoro-1,1-dimethyl-2,3-dihydro-1H-inden-5-yl)carbamoyl)-2-methoxy-7,8-dihydro-1,6-naphthyridin-6(5H)-yl)carbonyl)azetidin-3-yl)acetic acid], in assay [1], the inhibition in vivo at 10 mg/kg is 77%. The inhibition at 10 µM in assay [6] is 89%.
For `C[Si](C)(C)c1c(F)cc(NC(=O)[C@H]2c3ccc4c(c3CCN2C(=O)N2CC(CC(=O)O)C2)OCO4)cc1F` [Example 272, (1-(((6R)-6-((3,5-difluoro-4-(trimethylsilyl)phenyl)carbamoyl)-8,9-dihydro[1,3]dioxolo[4,5-f]isoquinolin-7(6H)-yl)carbonyl)azetidin-3-yl)acetic acid], the inhibition in vivo at 10 mg/kg in assay [1] is 86%. The inhibition at 10 µM in assay [6] was found to be 93%. In addition, the inhibition at 1 µM in assay [3] stood at 101%; in assay [4], 102%. Besides, the inhibition at 3 µM in assay [5] (Jurkat) stood at 100%.
As for `COc1ccc2c(c1)CCN(C(=O)CCCC(=O)O)[C@H]2C(=O)Nc1cc(F)c2c(c1)CCC2(C)C` [Example 176, 5-((1R)-1-((7-fluoro-1,1-dimethyl-2,3-dihydro-1H-inden-5-yl)carbamoyl)-6-methoxy-3,4-dihydroisoquinolin-2 (1H)-yl)-5-oxopentanoic acid], in assay [1], the inhibition in vivo at 30 mg/kg was 91%.
Regarding `COCc1ccc2c(c1)CCN(C(=O)CCCC(=O)O)[C@H]2C(=O)Nc1cc(F)c(C(C)(C)C)c(F)c1` [Example 144, 5-((1R)-1-((4-tert-butyl-3,5-difluorophenyl)carbamoyl)-6-(methoxymethyl)-3,4-dihydroisoquinolin-2 (1H)-yl)-5-oxopentanoic acid], the inhibition at 10 µM in assay [6] worked out at 86%. Moreover, the inhibition at 1 µM in assay [2] was 101%; in assay [3] it was 97%; in assay [4] it was 101%. Further, in assay [5] (setting [7]), the inhibition at 3 µM came to 101%.
Regarding `COc1ccc2c(c1)CCN(C(=O)N1CC(CC(=O)O)C1)[C@H]2C(=O)Nc1ccc([Si](C)(C)C)c(F)c1` [Example 279, (1-(((1R)-1-((3-fluoro-4-(trimethylsilyl)phenyl)carbamoyl)-6-methoxy-3,4-dihydroisoquinolin-2(1H)-yl)carbonyl)azetidin-3-yl)acetic acid], the inhibition in vivo at 10 mg/kg in assay [1] stood at 71%. Also, the inhibition at 1 µM was 89% in assay [3] and 102% in assay [4]. Further, the inhibition at 3 µM in assay [5] (Jurkat) came out at 100%.

For the origin of these results see patent US10053468B2, “Heterocyclic compound” (TAKEDA PHARMACEUTICAL COMPANY LIMITED, priority 2013, dated 2018).
